The results in this text go back to the NIST ThermoML archive (doi:10.1021/je300146k).

As a reminder, the mass density is the mass of a sample divided by its volume.

SMILES strings stand for the structures. Numbers after ± are expanded uncertainties.

For the series the following is noted: 298.15 K; 101.33 kPa; Liquid; Vibrating tube method.
As for `OCc1ccccc1` [benzenemethanol], the mass density is reported as 1043.53 ± 0.29 kg/m3.

For the compound `CCCCCCCCCC` [decane], the mass density is 726.43 ± 0.26 kg/m3. As to `CCCCCCCCCCCC` [dodecane], the mass density is on record as 741.54 ± 0.58 kg/m3. As to `CCCCCCC` [heptane], the mass density came out at 679.71 ± 0.21 kg/m3.

As to `CCCCCCCC` [octane], the mass density amounted to 698.76 ± 0.26 kg/m3. Consider `CCCCCCCCCCCCCC` [tetradecane], for which the mass density is 759.27 ± 0.26 kg/m3.
